Test results: ChEMBL document CHEMBL1153010, “Effect of conjugates of all-trans-retinoic acid and shorter polyene chain analogues with amino acids on prostate cancer cell growth” (Eur J Med Chem, 2009)
Active and inactive are the calls of the source. No cut-off for these calls is given here.

Tests used:
LNCaP [1] = experiment: Antiproliferative activity against human LNCAP cells after 48 hrs by MTT assay; format: functional, cell-based
LNCaP [2] = experiment: Effect on morphology in human LNCAP cells assessed as elongation of cells by phase-contrast microscopy; format: functional, cell-based
LNCaP [3] = experiment: Antiproliferative activity against human LNCAP cells after 48 hrs by MTT assay in the presence of 1 uM RARalpha selective antagonist Ro415253; format: functional, cell-based
LNCaP [4] = experiment: Antiproliferative activity against human LNCAP cells assessed as maximal effect at 10 uM after 48 hrs by MTT assay; format: functional, cell-based
LNCaP [5] = experiment: Cell cycle arrest in human LNCAP cells assessed as accumulation at G0/G1 phase after 48 hrs by flow cytometry; format: functional
LNCaP [6] = experiment: Cell cycle arrest in human LNCAP cells assessed as accumulation at G2/M phase after 48 hrs by flow cytometry; format: functional
LNCaP [7] = experiment: Cell cycle arrest in human LNCAP cells assessed as accumulation at S phase after 48 hrs by flow cytometry; format: functional

With CC1=C(/C=C/C(C)=C/C=C/C(C)=C/C(=O)NCCCCCC(=O)O)C(C)(C)CCC1 the Activity (LNCaP [1]) was “inactive” and the Activity (LNCaP [2]) was “Active”.

For CC1=C(/C=C/C(C)=C/C=C/C(C)=C/C(=O)N[C@@H](CC(C)C)C(=O)O)C(C)(C)CCC1, the Activity (LNCaP [1]) was “Dose-dependent effect”, the IC50 (LNCaP [1]) was 270 nM and the Activity (LNCaP [3]) was “Active”. For the same compound, the Activity (LNCaP [4]) was “Active”, the Activity (LNCaP [5]) was 65.9% and the Activity (LNCaP [6]) was 1.9%. It also gave an Activity (LNCaP [7]) of 19.6%.

CC1=C(/C=C/C(C)=C/C=C/C(C)=C/C(=O)O)C(C)(C)CCC1 [TRETINOIN] was tested, and the Activity (LNCaP [1]) was “Dose-dependent effect”, the IC50 (LNCaP [1]) was 500 nM and the Activity (LNCaP [3]) was “inactive”. The Activity (LNCaP [4]) was “Active”, the Activity (LNCaP [5]) was 66.7% and the Activity (LNCaP [6]) was 4.4%. The Activity (LNCaP [7]) was 17.6%.

For CC1=C(/C=C/C(C)=C/C=C/C(C)=C/C(=O)NCCC(=O)O)C(C)(C)CCC1, the Activity (LNCaP [1]) was “Dose-dependent effect”, the IC50 (LNCaP [1]) was 270 nM and the Activity (LNCaP [3]) was “Active”. For the same compound, the Activity (LNCaP [4]) was “Active”, the Activity (LNCaP [5]) was 64% and the Activity (LNCaP [6]) was 2.2%. The Activity (LNCaP [7]) was 14.8% and the Activity (LNCaP [2]) was “Active”.
